Measurements taken from US5137892A, “Quinoline, naphthyridine and pyridobenzoxazine derivatives” (Abbott Laboratories, priority 1990, dated 1992).
Values after ≈ are worked out from the molar mass of the structure shown.

Tests used:
Format in all cases: cell-based
[1] = system: Enterobacter aerogenes ATCC 13048; assay: In Vitro Antibacterial Activity, agar dilution MIC; settings: E. aerogenes ATCC 13048; BHI agar dilution, 20-24 hours; unit assumed
Description: (§1) The activity of the compounds of the present invention was tested against a wide variety of bacteria using standard assay procedures. Minimum inhibitory concentrations (MICs) were determined by the agar dilution method, described below, using Brain Heart Infusion agar.
(§2) Twelve petri dishes were prepared, each containing successive aqueous 2-fold dilutions of the test compounds mixed with 10 mL of sterilized Brain Heart Infusion (BHI) agar. Each plate was inoculated with 100-fold (or 10-fold, for slow-growing strains such as Micrococcus and Streptococcus) dilutions of up to 32 different microorganisms using a Steers replicator block calibrated to deliver approximately 10^4 colony forming units (CFUs). The inoculated plates were incubated at about 35°-37° C. for approximately 20-24 hours. In addition, a control plate, using BHI agar containing no test compound, was prepared and incubated at the beginning and at the end of each test. Ciprofloxacin was used as the reference antibiotic.
(§3) The MIC was defined as the lowest concentration of test compound yielding no growth (a slight haze or sparsely isolated colonies at the inoculum spot as compared to the growth control contaning no test compound.

[2] = system: Staphylococcus epidermidis 3519; assay: In Vitro Antibacterial Activity, agar dilution MIC; settings: S. epidermidis 3519; BHI agar dilution, 20-24 hours; unit assumed
Description: as §1, §2, §3

[3] = system: Streptococcus pyogenes 2548 INDUC; assay: In Vitro Antibacterial Activity, agar dilution MIC; settings: S. pyogenes 2548 INDUC; BHI agar dilution, 20-24 hours; unit assumed
Description: as §1, §2, §3

[4] = system: Staphylococcus aureus A-5278; assay: In Vitro Antibacterial Activity, agar dilution MIC; settings: S. aureus A-5278; BHI agar dilution, 20-24 hours; unit assumed
Description: as §1, §2, §3

Escherichia coli JUHL = assay: In Vitro Antibacterial Activity, agar dilution MIC; settings: E. coli JUHL; BHI agar dilution, 20-24 hours; unit assumed
Description: as §1, §2, §3

[5] = system: Staphylococcus aureus NCTC 10649; assay: In Vitro Antibacterial Activity, agar dilution MIC; settings: S. aureus NCTC 10649; BHI agar dilution, 20-24 hours; unit assumed
Description: as §1, §2, §3

Escherichia coli KNK 437 = assay: In Vitro Antibacterial Activity, agar dilution MIC; settings: E. coli KNK 437; BHI agar dilution, 20-24 hours; unit assumed
Description: as §1, §2, §3

[6] = system: Staphylococcus aureus 642A; assay: In Vitro Antibacterial Activity, agar dilution MIC; settings: S. aureus 642A; BHI agar dilution, 20-24 hours; unit assumed
Description: as §1, §2, §3

Escherichia coli DC-2 = assay: In Vitro Antibacterial Activity, agar dilution MIC; settings: E. coli DC-2; BHI agar dilution, 20-24 hours; unit assumed
Description: as §1, §2, §3

[7] = system: Pseudomonas aeruginosa A5007; assay: In Vitro Antibacterial Activity, agar dilution MIC; settings: P. aeruginosa A5007; BHI agar dilution, 20-24 hours; unit assumed
Description: as §1, §2, §3

[8] = system: Klebsiella pneumoniae ATCC 8045; assay: In Vitro Antibacterial Activity, agar dilution MIC; settings: K. pneumoniae ATCC 8045; BHI agar dilution, 20-24 hours; unit assumed
Description: as §1, §2, §3

[9] = system: Streptococcus bovis A5169; assay: In Vitro Antibacterial Activity, agar dilution MIC; settings: S. bovis A5169; BHI agar dilution, 20-24 hours; unit assumed
Description: as §1, §2, §3

[10] = system: Enterococcus faecium ATCC 8043; assay: In Vitro Antibacterial Activity, agar dilution MIC; settings: E. faecium ATCC 8043; BHI agar dilution, 20-24 hours; unit assumed
Description: as §1, §2, §3

Acinetobacter SP CMX 699 = assay: In Vitro Antibacterial Activity, agar dilution MIC; settings: BHI agar dilution, 20-24 hours, unit assumed
Description: as §1, §2, §3

[11] = system: Streptococcus agalactaciae CMX 508; assay: In Vitro Antibacterial Activity, agar dilution MIC; settings: S. agalactaciae CMX 508; BHI agar dilution, 20-24 hours; unit assumed
Description: as §1, §2, §3

[12] = system: Staphylococcus aureus A5177; assay: In Vitro Antibacterial Activity, agar dilution MIC; settings: S. aureus A5177; BHI agar dilution, 20-24 hours; unit assumed
Description: as §1, §2, §3

Escherichia coli H560 = assay: In Vitro Antibacterial Activity, agar dilution MIC; settings: E. coli H560; BHI agar dilution, 20-24 hours; unit assumed
Description: as §1, §2, §3

[13] = system: Staphylococcus aureus 1775; assay: In Vitro Antibacterial Activity, agar dilution MIC; settings: S. aureus 1775; BHI agar dilution, 20-24 hours; unit assumed
Description: as §1, §2, §3

[14] = system: Providencia stuartii CMX 640; assay: In Vitro Antibacterial Activity, agar dilution MIC; settings: P. stuartii CMX 640; BHI agar dilution, 20-24 hours; unit assumed
Description: as §1, §2, §3

Escherichia coli SS = assay: In Vitro Antibacterial Activity, agar dilution MIC; settings: E. coli SS; BHI agar dilution, 20-24 hours; unit assumed
Description: as §1, §2, §3

[15] = system: Streptococcus pyogenes EES61; assay: In Vitro Antibacterial Activity, agar dilution MIC; settings: S. pyogenes EES61; BHI agar dilution, 20-24 hours; unit assumed
Description: as §1, §2, §3

[16] = system: Staphylococcus aureus CMX 553; assay: In Vitro Antibacterial Activity, agar dilution MIC; settings: S. aureus CMX 553; BHI agar dilution, 20-24 hours; unit assumed
Description: as §1, §2, §3

[17] = system: Pseudomonas aeruginosa BMH10; assay: In Vitro Antibacterial Activity, agar dilution MIC; settings: P. aeruginosa BMH10; BHI agar dilution, 20-24 hours; unit assumed
Description: as §1, §2, §3

Pseudomonas cepacia 2961 = assay: In Vitro Antibacterial Activity, agar dilution MIC; settings: P. cepacia 2961; BHI agar dilution, 20-24 hours; unit assumed
Description: as §1, §2, §3

[18] = system: Micrococcus luteus ATCC 4698; assay: In Vitro Antibacterial Activity, agar dilution MIC; settings: M. luteus ATCC 4698; BHI agar dilution, 20-24 hours; unit assumed
Description: as §1, §2, §3

[19] = system: Streptococcus pyogenes 930 CONST; assay: In Vitro Antibacterial Activity, agar dilution MIC; settings: S. pyogenes 930 CONST; BHI agar dilution, 20-24 hours; unit assumed
Description: as §1, §2, §3

[20] = system: Staphylococcus aureus ATCC 6538P; assay: In Vitro Antibacterial Activity, agar dilution MIC; settings: S. aureus ATCC 6538P; BHI agar dilution, 20-24 hours; unit assumed
Description: as §1, §2, §3

[21] = system: Pseudomonas aeruginosa K799/WT; assay: In Vitro Antibacterial Activity, agar dilution MIC; settings: P. aeruginosa K799/WT; BHI agar dilution, 20-24 hours; unit assumed
Description: as §1, §2, §3

[22] = system: Micrococcus luteus ATCC 9341; assay: In Vitro Antibacterial Activity, agar dilution MIC; settings: M. luteus ATCC 9341; BHI agar dilution, 20-24 hours; unit assumed
Description: as §1, §2, §3

[23] = system: Pseudomonas aeruginosa K599/61; settings: P. aeruginosa K599/61; BHI agar dilution, 20-24 hours; unit assumed
Description: as §1, §2, §3

Staphylococcus aureus 45 = assay: In Vitro Antibacterial Activity, agar dilution MIC; settings: S. aureus 45; BHI agar dilution, 20-24 hours; unit assumed
Description: as §1, §2, §3

[24] = system: Pseudomonas aeruginosa 2862; assay: In Vitro Antibacterial Activity, agar dilution MIC; settings: P. aeruginosa 2862; BHI agar dilution, 20-24 hours; unit assumed
Description: as §1, §2, §3

[25] = system: Pseudomonas aeruginosa 5263; assay: In Vitro Antibacterial Activity, agar dilution MIC; settings: P. aeruginosa 5263; BHI agar dilution, 20-24 hours; unit assumed
Description: as §1, §2, §3

Compound | MIC values [1] | MIC values [2] | MIC values [3] | MIC values [4] | MIC values (Escherichia coli JUHL) | MIC values [5] | MIC values (Escherichia coli KNK 437) | MIC values [6] | MIC values (Escherichia coli DC-2) | MIC values [7] | MIC values [8] | MIC values [9] | MIC values [10] | MIC values (Acinetobacter SP CMX 699) | MIC values [11] | MIC values [12] | MIC values (Escherichia coli H560) | MIC values [13] | MIC values [14] | MIC values (Escherichia coli SS) | further results
NC1CN(c2c(F)cc3c(=O)c(C(=O)O)cn(C4CC4)c3c2F)CC12OCCO2 (stereo not drawn) [Example 274, 1-Cyclopropyl-6,8-difluoro-7-(9-amino-1,4-dioxa-7-azaspiro[4.4]non-7-yl)-1,4-dihydro-4-oxo-3-quinolinecarboxylic acid] | 0.2 µg/mL (≈ 0.491 µM) | 0.1 µg/mL (≈ 0.245 µM) | 0.1 µg/mL (≈ 0.245 µM) | 0.05 µg/mL (≈ 0.123 µM) | 0.05 µg/mL (≈ 0.123 µM) | 0.05 µg/mL (≈ 0.123 µM) | 0.78 µg/mL (≈ 1.91 µM) | 0.1 µg/mL (≈ 0.245 µM) | 0.78 µg/mL (≈ 1.91 µM) | 1.56 µg/mL (≈ 3.83 µM) | 0.05 µg/mL (≈ 0.123 µM) | 0.39 µg/mL (≈ 0.957 µM) | 0.39 µg/mL (≈ 0.957 µM) | 0.2 µg/mL (≈ 0.491 µM) | 0.2 µg/mL (≈ 0.491 µM) | 0.1 µg/mL (≈ 0.245 µM) | 0.2 µg/mL (≈ 0.491 µM) | 6.2 µg/mL (≈ 15.2 µM) | 0.78 µg/mL (≈ 1.91 µM) | 0.002 µg/mL (≈ 0.00491 µM) | MIC values [15]: 0.2 µg/mL (≈ 0.491 µM); MIC values [16]: 0.1 µg/mL (≈ 0.245 µM); MIC values [17]: 1.56 µg/mL (≈ 3.83 µM); MIC values (Pseudomonas cepacia 2961): 6.2 µg/mL (≈ 15.2 µM); MIC values [18]: 0.39 µg/mL (≈ 0.957 µM); MIC values [19]: 0.2 µg/mL (≈ 0.491 µM); MIC values [20]: 0.05 µg/mL (≈ 0.123 µM); MIC values [21]: 1.56 µg/mL (≈ 3.83 µM); MIC values [22]: 0.39 µg/mL (≈ 0.957 µM); MIC values [23]: 0.1 µg/mL (≈ 0.245 µM)
O=C(O)c1cn(C2CC2)c2cc(N3CCNCC3)c(F)cc2c1=O [Cipro, Ciprofloxacin, reference compound] | 0.05 µg/mL (≈ 0.151 µM) | 0.2 µg/mL (≈ 0.604 µM) | 0.39 µg/mL (≈ 1.18 µM) | 0.39 µg/mL (≈ 1.18 µM) | 0.02 µg/mL (≈ 0.0604 µM) | 0.39 µg/mL (≈ 1.18 µM) | 0.2 µg/mL (≈ 0.604 µM) | 0.39 µg/mL (≈ 1.18 µM) | 0.2 µg/mL (≈ 0.604 µM) | 0.1 µg/mL (≈ 0.302 µM) | 0.02 µg/mL (≈ 0.0604 µM) | 1.56 µg/mL (≈ 4.71 µM) | 0.39 µg/mL (≈ 1.18 µM) | 0.39 µg/mL (≈ 1.18 µM) | 0.39 µg/mL (≈ 1.18 µM) | 0.39 µg/mL (≈ 1.18 µM) | 0.01 µg/mL (≈ 0.0302 µM) | > 100 µg/mL | 0.78 µg/mL (≈ 2.35 µM) | 0.005 µg/mL (≈ 0.0151 µM) | MIC values (Staphylococcus aureus 45): 0.78 µg/mL (≈ 2.35 µM); MIC values [15]: 0.39 µg/mL (≈ 1.18 µM); MIC values [16]: 0.78 µg/mL (≈ 2.35 µM); MIC values [17]: 0.05 µg/mL (≈ 0.151 µM); MIC values [24]: 25 µg/mL (≈ 75.4 µM); MIC values (Pseudomonas cepacia 2961): 3.1 µg/mL (≈ 9.36 µM); MIC values [18]: 0.78 µg/mL (≈ 2.35 µM); MIC values [25]: 12.5 µg/mL (≈ 37.7 µM); MIC values [19]: 0.78 µg/mL (≈ 2.35 µM); MIC values [20]: 0.2 µg/mL (≈ 0.604 µM); MIC values [21]: 0.1 µg/mL (≈ 0.302 µM); MIC values [22]: 1.56 µg/mL (≈ 4.71 µM); MIC values [23]: 0.02 µg/mL (≈ 0.0604 µM)
